In patent US10334847B2, “Antifungal composition” (The University of Sussex, priority 2014, dated 2019):

How the values were obtained:
S. cerevisiae = assay: Agar plate growth inhibition assay against S. cerevisiae; type: cell-based; conditions: S. cerevisiae on YPG agar plates, 1 μM of each compound, alone or in combination, 3-5 days at 30° C.; FIG. 8
Description: The inventors tested the efficacy of a combination of Colletochlorin B and azoxystrobin on the growth of S. cerevisiae. As in Example 1, Colletochlorin B was synthesised using the methodology described in WO 2013/160670 with reference to FIG. 7.
• 1. S. cerevisiae was streaked out and grown up on YPD agar plates for 3 days at 30° C. • 2. 5 mL of YPG liquid media was inoculated with S. cerevisiae from the YPD plates and grown for 3 days at 30° C. with shaking at 180 rpm to produce a cell culture. • 3. Approximately 5×10^5 cells of the S. cerevisiae were then plated out onto YPG agar plates containing 1 μM Colletochlorin B, or 1 μM azoxystrobin, or a combination of 1 μM Colletochlorin and 1 μM azoxystrobin. • 4. The plates were incubated for 3-5 days at 30° C. • 5. The degree of inhibition of fungal/yeast growth caused by the inhibitors was then assessed.
For each plate, the yeast colony grown in the centre at the top was not grown in the presence of any inhibitor acting as a negative control. However, for the plate shown in FIG. 8A, the colony shown on the lower left was grown in the presence of only 1 μM Colletochlorin B, and for the plate shown in FIG. 8B, the colony shown on the lower left was grown in the presence of only 1 μM azoxystrobin. […]

Chalara fraxinea = assay: Agar plate growth inhibition assay of fungicides against fungi (Chalara fraxinea); type: cell-based; conditions: Chalara fraxinea on YPG agar plates, 3-5 days at 30° C.; compounds used separately or in combination
Description: Example 1—Assays Used to Test Fungicides Against Fungi (e.g. Chalara fraxinea)
• 2% Yeast extract • 2% Peptone • 2% D-glucose • 2% agar YPG • 2% Yeast extract • 2% Peptone • 2% Glycerol • 2% agar Fungicide Formulations
Colletochlorin B was synthesised using the methodology described in WO 2013/160670 with reference to FIG. 7. Then, 1 μM of Colletochlorin B is separately combined with […] of each of the following fungicides to produce seven different formulations:— • 1) Metalaxyl—belongs to the phenylamide fungicide family (Sukul, P. and M. Spiteller (2000) “Metalaxyl: persistence, degradation, metabolism, and analytical methods.” Rev Environ Contam Toxicol 164: 1-26); • 2) Azoxystrobin—belongs to the strobilurin family; • 3) DMI (DeMethylation Inhibitor); • 4) CuPC33—A copper based compound; • 5) Boscalid; • 6) Difenconcozole; and • 7) Pyraclostrobin. Methods • 1. Yeast strains are streaked out and grown on YPD agar plates for 3 days at 30° C. • 2. 5 mL of YPD liquid media is inoculated with a fungal strain of interest (e.g. Chalara fraxinea) and grown for 3 days at 30° C. with shaking at 180 rpm. • 3. 1 μL inoculum of the fungal strain is added to 9999 μL YPG liquid media and gently mixed. • 4. […] The degree of inhibition of fungal/yeast growth caused by the inhibitors is then assessed. […]

cytochrome bc1 complex = conditions: disclosed in WO 2013/160670; cited from earlier work
[1] = test system: microbial alternative oxidase (AOX); conditions: disclosed in WO 2013/160670; cited from earlier work

Row | Structure (SMILES) | degree of inhibition of fungal/yeast growth (S. cerevisiae) | degree of inhibition of fungal growth (Chalara fraxinea) | inhibition of cytochrome bc1 complex (cytochrome bc1 complex) | inhibition of AOX [1]
1 | CO/C=C(/C(=O)OC)c1ccccc1Oc1cc(Oc2ccccc2C#N)ncn1 [Azoxystrobin, reference compound] | partial growth inhibition | partial growth inhibition | – | –
2 | CC(C)=CCC/C(C)=C/Cc1c(O)c(Cl)c(C)c(C=O)c1O [Colletochlorin B] | partial growth inhibition | partial growth inhibition | particularly effective inhibition | particularly effective inhibition
